Results on 21 molecules are retold here after paper PMC6278315, “Microwave-Assisted Expeditious Synthesis of 2-Alkyl-2-(N-arylsulfonylindol-3-yl)-3-N-acyl-5-aryl-1,3,4-oxadiazolines Catalyzed by HgCl2 under Solvent-Free Conditions as Potential Anti-HIV-1 Agents” (Molecules, 2018).

Converted amounts (≈) assume the structure as drawn. Some results are limits rather than exact numbers.

One data set relates to HIV-1IIIB. The data set can be described thus: Syncytia assay (anti-HIV-1 activity). It is filed as cell-based. To be noted: Human immunodeficiency virus 1, 72 h; concentration reducing syncytia formation by 50%; C8166 cells infected with HIV-1IIIB, M.O.I 0.06, 3 days; means of two separate experiments; read-out: EC50 (50% effective concentration). On the procedure: (§1) Cell line (C8166) and the laboratory-derived virus (HIV-1IIIB) were obtained from MRC, AIDS Reagent Project, London, UK. C8166 was maintainedin RPMI-1640 supplemented with 10% heat-inactivated newborn calf serum (Gibco, Grand Island, NY, USA). The cells used in all experiments were in log-phase growth. The 50% HIV-1IIIB tissue culture infectious dose (TCID50) in C8166 cells was determined and calculated by the Reed and Muench method. Virus stocks were stored in small aliquots at −70 °C.
In the presence of 100 μL various concentrations of 2-alkyl-2-(N-arylsulfonylindol-3-yl)-3-N-acyl-5-aryl-1,3,4-oxadiazolines, C8166 cells (4 × 10^5/mL) were infected with virus HIV-1IIIB at a multiplicity of infection (M.O.I) of 0.06. The final volume per well was 200 μL. Control assays were performed without the testing compounds in HIV-1IIIB infected and uninfected cultures. After 3 days of culture, the cytopathic effect (CPE) was measured by counting the number of syncytia. Percentage inhibition of syncytia formation was calculated and 50% effective concentration (EC50) was calculated. AZT (Sigma-Aldrich, St. Louis, MO, USA) was used as a positive control. Therapeutic index (TI) = CC50/EC50.

Data set [1] in a line: MTT-based cytotoxicity assay. To be noted: human, C8166 cells, concentration causing 50% reduction in total C8166 cell number, means of two separate experiments, read-out: CC50 (50% cytotoxic concentration). On the procedure:
as §1
Cellular toxicity of 2-alkyl-2-(N-arylsulfonylindol-3-yl)-3-N-acyl-5-aryl-1,3,4-oxadiazolines 3s–r′ on C8166 cells was assessed by MTT method as described previously. Briefly, cells were seeded on 96-well microtiter plate in the absence or presence of various concentrations of 2-alkyl-2-(N-arylsulfonylindol-3-yl)-3-N-acyl-5-aryl-1,3,4-oxadiazolines in triplicate and incubated at 37 °C in a humid atmosphere of 5% CO2 for 3 day. The supernatants were discarded and MTT reagent (5 mg/mL in PBS) was added to each wells, then incubated for 4 h, 100 μL of 50% N,N-dimethylformamide (DMF)-20% SDS was added. After the formazan was dissolved completely, the plates were read on a Bio-TekElx800 ELISA reader (BioTek, Winooski, VT, USA) at 595/630 nm. The cytotoxic concentration that caused the reduction of viable C8166 cells by 50% (CC50) was determined from dose–response curve.

Regarding `COc1ccc(S(=O)(=O)n2cc(C3OC(c4ccccc4)=NN3C(C)=O)c3ccccc32)cc1` (stereo not drawn) [3m′], in the data set with HIV-1IIIB, the EC50 was found to be 22.5 µg/mL (≈ 47.3 µM). Further, the CC50 at 3 day in data set [1] came out at 12.3 µg/mL (≈ 25.9 µM).
The molecule `CC(=O)N1N=C(c2ccccc2)OC1(C)c1cn(S(=O)(=O)c2ccc(C)cc2)c2ccc([N+](=O)[O-])cc12` (stereo not drawn) [3b′, 2-Methyl-2-(N-p-methylbenzenesulfonyl-5-nitroindol-3-yl)-3-N-acetyl-5-phenyl-1,3,4-oxadiazolines] showed a melting point of 110 to 112 °C. Also, the EC50 in the data set on HIV-1IIIB came out at 9.54 µg/mL (≈ 18.4 µM). For the same molecule, the CC50 at 3 day in data set [1] came out at 133 µg/mL (≈ 256 µM).
As for `CC(=O)N1N=C(c2ccccc2)OC1c1cn(S(=O)(=O)c2cccc([N+](=O)[O-])c2)c2cc(C)ccc12` (stereo not drawn) [3i′], the EC50 in the data set on HIV-1IIIB was found to be 0.51 µg/mL (≈ 1.01 µM). Besides, the CC50 at 3 day in data set [1] amounted to 20.2 µg/mL (≈ 40 µM).
Regarding `CCC(=O)N1N=C(c2ccccc2)OC1c1cn(S(=O)(=O)c2ccc(C)cc2)c2ccc(C#N)cc12` (stereo not drawn) [3r′], the EC50 in the data set with HIV-1IIIB was 4.01 µg/mL (≈ 8.04 µM). In addition, in data set [1], the CC50 at 3 day stood at 98.3 µg/mL (≈ 197 µM).
The matching figures for `CC(=O)N1N=C(c2ccccc2)OC1c1cn(S(=O)(=O)c2ccc(C)cc2)c2cc(C)ccc12` (stereo not drawn) [3g′]: 22.5 µg/mL (≈ 47.5 µM) and 80.8 µg/mL (≈ 171 µM).
On to `CC(=O)N1N=C(c2ccccc2)OC1c1cn(S(=O)(=O)c2ccc(C)cc2)c2ccccc12` (stereo not drawn) [3e′], for which, in the data set on HIV-1IIIB, the EC50 worked out at 15.5 µg/mL (≈ 33.8 µM). Also, the CC50 at 3 day in data set [1] turned out to be 15.1 µg/mL (≈ 32.8 µM).
On to `CC(=O)N1N=C(c2ccccc2)OC1(C)c1cn(S(=O)(=O)c2ccccc2)c2ccc(C#N)cc12` (stereo not drawn) [3z, 2-Methyl-2-(N-benzenesulfonyl-5-cyanoindol-3-yl)-3-N-acetyl-5-phenyl-1,3,4-oxadiazolines], for which the melting point was in the range of 208 to 210 °C. Besides, the EC50 in the data set on HIV-1IIIB worked out at 17.6 µg/mL (≈ 36.3 µM). The CC50 at 3 day in data set [1] turned out to be 53 µg/mL (≈ 109 µM).
In the case of `CC(=O)N1N=C(c2ccccc2)OC1c1cn(S(=O)(=O)c2cccc([N+](=O)[O-])c2)c2ccccc12` (stereo not drawn) [3f′], the EC50 with HIV-1IIIB was determined as 1.79 µg/mL (≈ 3.65 µM). The CC50 at 3 day in data set [1] came out at 43.5 µg/mL (≈ 88.6 µM).
The molecule `CC(=O)N1N=C(c2ccccc2)OC1(C)c1cn(S(=O)(=O)c2ccccc2)c2cc(C)ccc12` (stereo not drawn) [3y, 2-Methyl-2-(N-benzenesulfonyl-6-methylindol-3-yl)-3-N-acetyl-5-phenyl-1,3,4-oxadiazolines] registered a melting point of 142 to 144 °C. In addition, the EC50 in the data set with HIV-1IIIB amounted to 6.12 µg/mL (≈ 12.9 µM). Moreover, in data set [1], the CC50 at 3 day is > 200 µg/mL.
Take `Cc1cn([C@H]2C[C@H](N=[N+]=[N-])[C@@H](CO)O2)c(=O)[nH]c1=O` [AZT, 3′-azido-3′-deoxythymidine, reference compound]: in the data set on HIV-1IIIB, the EC50 was determined as 0.00199 µg/mL (≈ 0.00745 µM). The CC50 at 3 day in data set [1] came out at 1370 µg/mL (≈ 5140 µM).
Take `CC(=O)N1N=C(c2ccccc2)OC1c1cn(S(=O)(=O)c2ccc(Cl)c([N+](=O)[O-])c2)c2cc(C)ccc12` (stereo not drawn) [3j′]: the EC50 with HIV-1IIIB came out at 12.4 µg/mL (≈ 23 µM). Besides, the CC50 at 3 day in data set [1] came out at 2.26 µg/mL (≈ 4.19 µM).
As to `CC(=O)N1N=C(c2ccccc2)OC1c1cn(S(=O)(=O)c2ccc(C)cc2)c2ccc(C#N)cc12` (stereo not drawn) [3o′], the EC50 in the data set on HIV-1IIIB amounted to 18.1 µg/mL (≈ 37.4 µM). For the same molecule, in data set [1], the CC50 at 3 day turned out to be 152 µg/mL (≈ 313 µM).
The molecule `CCC1(c2cn(S(=O)(=O)c3ccccc3)c3ccccc23)OC(c2ccccc2)=NN1C(C)=O` (stereo not drawn) [3d′, 2-Ethyl-2-(N-benzenesulfonylindol-3-yl)-3-N-acetyl-5-phenyl-1,3,4-oxadiazolines] yielded a melting point of 224 to 226 °C. In addition, in the data set on HIV-1IIIB, the EC50 was 20.3 µg/mL (≈ 42.9 µM). In addition, the CC50 at 3 day in data set [1] was found to be 105 µg/mL (≈ 222 µM).
With `COc1ccc(S(=O)(=O)n2cc(C3OC(c4ccccc4)=NN3C(C)=O)c3ccc(C)cc32)cc1` (stereo not drawn) [3n′], in the data set on HIV-1IIIB, the EC50 worked out at 16.6 µg/mL (≈ 33.8 µM). In addition, in data set [1], the CC50 at 3 day stood at 11.2 µg/mL (≈ 22.9 µM).
On to `CC(=O)N1N=C(c2ccccc2)OC1c1cn(S(=O)(=O)c2cccc([N+](=O)[O-])c2)c2ccc(C#N)cc12` (stereo not drawn) [3p′], for which the EC50 in the data set on HIV-1IIIB came out at 63.8 µg/mL (≈ 124 µM). Besides, the CC50 at 3 day in data set [1] is 135 µg/mL (≈ 262 µM).
The matching figures for `CC(=O)N1N=C(c2ccccc2)OC1c1cn(S(=O)(=O)c2ccc(Cl)c([N+](=O)[O-])c2)c2ccccc12` (stereo not drawn) [3h′]: 3.53 µg/mL (≈ 6.72 µM) and 4.8 µg/mL (≈ 9.14 µM).
Regarding `CCC(=O)N1N=C(c2ccccc2)OC1c1cn(S(=O)(=O)c2ccc(C)cc2)c2ccccc12` (stereo not drawn) [3q′], the EC50 in the data set on HIV-1IIIB was 3 µg/mL (≈ 6.34 µM). Also, the CC50 at 3 day in data set [1] is 78 µg/mL (≈ 165 µM).
The matching figures for `CC(=O)N1N=C(c2ccccc2)OC1c1cn(S(=O)(=O)c2ccc(Cl)cc2)c2cc(C)ccc12` (stereo not drawn) [3l′]: 57.5 µg/mL (≈ 116 µM) and 182 µg/mL (≈ 368 µM).
On to `CC(=O)N1N=C(c2ccccc2)OC1c1cn(S(=O)(=O)c2ccc(Cl)cc2)c2ccccc12` (stereo not drawn) [3k′], for which the EC50 in the data set on HIV-1IIIB worked out at 19.4 µg/mL (≈ 40.4 µM). Moreover, in data set [1], the CC50 at 3 day is 16.6 µg/mL (≈ 34.5 µM).
As for `CC(=O)N1N=C(c2ccccc2)OC1(C)c1cn(S(=O)(=O)c2ccc(Cl)cc2)c2ccc(C#N)cc12` (stereo not drawn) [3a′, 2-Methyl-2-(N-p-chlorobenzenesulfonyl-5-cyanoindol-3-yl)-3-N-acetyl-5-phenyl-1,3,4-oxadiazolines], the melting point was in the range of 128 to 130 °C. The EC50 with HIV-1IIIB was 3.63 µg/mL (≈ 6.99 µM). Also, the CC50 at 3 day in data set [1] came to 113 µg/mL (≈ 218 µM).
The matching figures for `CC(=O)N1N=C(c2ccccc2)OC1(C)c1cn(S(=O)(=O)c2ccc(Cl)cc2)c2ccc([N+](=O)[O-])cc12` (stereo not drawn) [3c′, 2-Methyl-2-(N-p-chlorobenzenesulfonyl-5-nitroindol-3-yl)-3-N-acetyl-5-phenyl-1,3,4-oxadiazolines]: 108 to 110 °C, 6.01 µg/mL (≈ 11.2 µM) and 53.4 µg/mL (≈ 99.1 µM).

Broadly, the melting point is the temperature, or range, at which the solid turns liquid.
